The text below walks through data of patent publication US12065445B2, “CDK2 inhibitors and methods of using the same” (Cedilla Therapeutics, Inc., priority 2021, dated 2024).

One experiment has as its system Kuramochi cells. In words: BrdU Cell Proliferation Assay. Format: cell-based. Particulars: read-out: BrdU - KURAMOCHI.1: IC50. In a few lines:
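Kuramochi cells were seeded at 2,000 cells/well, adhered overnight, then treated with a 10-point, 3-fold compound dilution series for 4 days. Proliferation was measured by a 1-hour BrdU pulse, anti-BrdU peroxidase colorimetric ELISA and 450 nm absorbance. Values were background-subtracted and normalized to DMSO wells.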

Experiment [1] relates to Kuramochi cells labeled with mApple-H2B. Kind of experiment: IncuCyte Cell Proliferation Assay. Type of experiment: cell-based. Particulars: 72 h. The method in brief: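 Cells imaged at 0 and 72 h after compound treatment (10 points, ½ log dilution, 20 μM top), with fluorescent nuclei counted. Fold change in count was normalized to DMSO wells and fitted to dose-response curves to give GI50.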

pIC50: −log10 of the molar value.

In the case of `C[C@@H](OCC1CCCCC1)[C@@H](CO)NC(=O)[C@@H]1CN(C(=O)c2cnn(Cc3ccccc3)c2)CC12CN(C(=O)[C@H]1CC1(C)C)C2` [I-135A], the pIC50 (with Kuramochi cells; in experiment [1]) was 5.30 to 6.30 throughout.
Consider `CNC(=O)[C@@H](NC(=O)[C@@H]1CN(C(=O)c2cnn(Cc3ccccc3)c2)CC12CN(C(=O)[C@H]1CC1(C)C)C2)[C@@H](C)OC[C@H]1CC[C@H](OC)CC1` [I-403], for which the pIC50 in the experiment on Kuramochi cells was below 5.00; in experiment [1], below 4.70.
`C[C@@H]1C[C@H](C)CN(C(=O)[C@@H](NC(=O)C2CN(C(=O)c3cnn(Cc4ccccc4)c3)CC23CN(C(=O)[C@H]2CC2(C)C)C3)[C@@H](C)OCC2CCCCC2)C1` (stereo partly drawn) [I-104]: the pIC50 with Kuramochi cells was at least 6.30; in experiment [1] it was 5.30 to 6.30.
For the compound `CC1(C)C[C@@H]1C(=O)N1CC2(CN(C(=O)c3cnn(Cc4ccccc4)c3)C[C@@H]2C(=O)N[C@H]2CCc3cc(Cl)ccc32)C1` [I-133B], the pIC50 in the experiment on Kuramochi cells is below 5.00; in experiment [1] it was below 4.70.
For the compound `CNC(=O)[C@@H](NC(=O)[C@@H]1CN(C(=O)c2cncs2)CC12CN(C(=O)[C@H]1CC1(C)C)C2)[C@@H](C)OC1C2CC3CC(C2)CC1C3` (stereo partly drawn) [I-463], the pIC50 (in the experiment on Kuramochi cells; in experiment [1]) was 5.30 to 6.30 throughout.
On to `Cc1ccc(C(C)NC(=O)[C@@H]2CN(C(=O)c3cnn(Cc4ccccc4)c3)CC23CN(C(=O)[C@H]2CC2(C)C)C3)nn1` (stereo partly drawn) [I-366], for which the pIC50 (in the experiment with Kuramochi cells; in experiment [1]) was 5.30 to 6.30 each time.
Consider `C[C@@H](OCc1ccccc1)[C@H](NC(=O)C1CN(C(=O)c2cnn(Cc3ccccc3)c2)CC12CN(C(=O)[C@H]1CC1(C)C)C2)C(=O)N1CCCCC1` (stereo partly drawn) [I-97, 6-(1-benzyl-1H-pyrazole-4-carbonyl)-N-((2S,3R)-3-(benzyloxy)-1-oxo-1-(piperidin-1-yl)butan-2-yl)-2-((S)-2,2-dimethylcyclopropanecarbonyl)-2,6-diazaspiro[3.4]octane-8-carboxamide], for which the pIC50 (with Kuramochi cells; in experiment [1]) was 5.30 to 6.30 throughout.
For the compound `CNC(=O)[C@@H](NC(=O)[C@@H]1CN(C(=O)c2cnn(Cc3ccccc3)c2)CC12CN(C(=O)[C@H]1CC1(C)C)C2)[C@@H](C)OCc1ccc(Br)cc1` [I-263], the pIC50 (in the experiment on Kuramochi cells; in experiment [1]) was 5.30 to 6.30 throughout.
As to `CNC(=O)[C@@H](NC(=O)[C@@H]1CN(C(=O)c2cnn(Cc3ccccc3)c2)CC12CN(C(=O)[C@H]1CC1(C)C)C2)[C@@H](C)OCC1C[C@@H](C)C[C@@H](C)C1` (stereo partly drawn) [I-249], the pIC50 (in the experiment on Kuramochi cells; in experiment [1]) was 5.30 to 6.30 in each case.
Regarding `COC[C@H]1CCCN(C(=O)[C@@H](NC(=O)C2CN(C(=O)c3cncs3)CC23CN(C(=O)[C@H]2CC2(C)C)C3)[C@@H](C)OCC2CCCCC2)C1` (stereo partly drawn) [I-196 mixture], the pIC50 is at least 6.30 in the experiment with Kuramochi cells and 5.30 to 6.30 in experiment [1].
Regarding `COC[C@H]1CCCN(C(=O)[C@@H](NC(=O)[C@@H]2CN(C(=O)c3cnn(Cc4ccccc4)c3)CC23CN(C(=O)[C@H]2CC2(C)C)C3)[C@@H](C)OC)C1` [I-283], the pIC50 in the experiment with Kuramochi cells was below 5.00; in experiment [1], below 4.70.
On to `CNC(=O)[C@@H](NC(=O)[C@@H]1CN(C(=O)c2cnc(C(C)(C)C)s2)CC12CN(C(=O)[C@H]1CC1(C)C)C2)[C@@H](C)OCC1CCCCC1` [I-229A], for which the pIC50 (in the experiment on Kuramochi cells; in experiment [1]) was 5.30 to 6.30 throughout.
For the compound `CNC(=O)[C@@H](NC(=O)[C@@H]1CN(C(=O)c2cncs2)CC12CN(C(=O)[C@H]1CC1(C)C)C2)[C@@H](C)OCC1CCC2(CC1)CC2` [I-355], the pIC50 in the experiment on Kuramochi cells is 5.30 to 6.30; in experiment [1] it was at least 6.30.
With `CNC(=O)[C@@H](NC(=O)[C@H]1CN(C(=O)c2cnn(Cc3ccccc3)c2)CC12CN(C(=O)[C@H]1CC1(C)C)C2)[C@@H](C)OCC1CCCC1` [I-110B], the pIC50 in the experiment on Kuramochi cells is 5.00 to 5.30; in experiment [1], 4.70 to 5.30.
With `CC1(C)C[C@@H]1C(=O)N1CC2(CN(C(=O)c3cnn(Cc4ccccc4)c3)C[C@H]2C(=O)NCc2nnc[nH]2)C1` [I-191A], the results for the pIC50 (in the experiment with Kuramochi cells; in experiment [1]) were below 5.00 and below 4.70, respectively.

As a reminder, the pIC50 is the IC50 on a negative log10 scale, so that one unit is a factor of ten.
